The values below are quoted from earlier work in patent publication US20220257541A1, “Lacosamide for the Treatment of ADD/ADHD” (priority 2019, published 2022).

SMILES strings stand for the structures.

Data set [1] relates to children who take methylphenidate. As to conditions: cited from earlier work.
Data set [2] has as its system voltage-gated sodium channels. As to conditions: cited from earlier work.

Turning to `COC(=O)C(c1ccccc1)C1CCCCN1` (centres unmarked) [methylphenidate], the “proportion of children who develop symptoms of obsessive-compulsive behaviour” value in data set [1] was “one third”.

For the compound `NC(=O)c1cn(Cc2c(F)cccc2F)nn1` [rufinamide, 1-[(2,6-difluorophenyl)methyl]-1H-1,2,3-triazole-4 carboxamide], the mechanism of action entry in data set [2] is reported as “act through voltage-gated sodium channels”.
